19 compounds from ChEMBL document CHEMBL1131884, “Dicationic 2-fluorenonylcarbapenems: potent anti-MRS agents with improved solubility and pharmacokinetic properties” (Bioorg Med Chem Lett, 1999) can be followed below.

In one assay the test system is Staphylococcus sp. Nature of the assay: Antibacterial activity against methicillin-resistant coagulase negative Staphylococci (MRCNS). The assay is classed as functional.
For another assay, the target named is T1, MecA (Staphylococcus aureus, UniProt Q7DHH4).
T1 sequence (Q7DHH4 whole entry): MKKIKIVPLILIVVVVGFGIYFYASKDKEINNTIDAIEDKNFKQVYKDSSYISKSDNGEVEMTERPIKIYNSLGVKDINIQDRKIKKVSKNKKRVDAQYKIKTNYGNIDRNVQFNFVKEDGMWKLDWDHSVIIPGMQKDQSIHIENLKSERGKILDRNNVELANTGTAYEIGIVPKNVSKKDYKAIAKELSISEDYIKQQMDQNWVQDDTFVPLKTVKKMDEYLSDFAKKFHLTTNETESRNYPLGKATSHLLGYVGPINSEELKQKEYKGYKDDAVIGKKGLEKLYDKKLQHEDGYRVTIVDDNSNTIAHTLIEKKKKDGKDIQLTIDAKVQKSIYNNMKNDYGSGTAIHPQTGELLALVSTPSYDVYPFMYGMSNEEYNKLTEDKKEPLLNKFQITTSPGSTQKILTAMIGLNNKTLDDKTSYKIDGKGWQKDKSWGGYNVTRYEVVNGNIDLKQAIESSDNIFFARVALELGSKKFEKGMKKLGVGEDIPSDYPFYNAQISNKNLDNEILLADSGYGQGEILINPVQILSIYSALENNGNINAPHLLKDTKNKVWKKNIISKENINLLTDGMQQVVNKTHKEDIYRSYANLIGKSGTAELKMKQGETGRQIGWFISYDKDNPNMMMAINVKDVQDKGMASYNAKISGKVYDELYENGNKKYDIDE
Briefly: Binding affinity against PBP2a receptor by competition analysis with [3H]benzylpenicillin using cell membrane fractions from the MRSA COL strain.

The test system of the next assay is Staphylococcus aureus. Nature of the assay: Antibacterial activity against methicillin-resistant Staphylococcus aureus (MRSA). The assay is classed as functional.

Each structure is given as a SMILES string.

As to `C[C@@H](O)[C@H]1C(=O)N2C(C(=O)O)=C(c3ccc4c(c3)-c3ccc(C[N+]56CC[N+](CC(=O)Nc7ccc(C(N)=O)cc7)(CC5)CC6)cc3C4=O)[C@H](C)[C@H]12.[Cl-].[Cl-]`, in the assay with Staphylococcus sp., the MIC50 (in general, an inhibitory concentration at the 50% level, which refers to growth in some studies and to a panel of isolates in others) came out at 0.5 µg/mL; the MIC90 – broadly, the lowest concentration that inhibits either 90% of growth or 90% of the strains tested, depending on the study – is 2 µg/mL. In addition, the IC50 (usually the concentration that gives 50% inhibition) at MecA is 1.97 µM. Moreover, in the assay on Staphylococcus aureus, the MIC50 was determined as 0.25 µg/mL and the MIC90 was 0.5 µg/mL.

On to `C[C@@H](O)[C@H]1C(=O)N2C(C(=O)O)=C(c3ccc4c(c3)-c3ccc(C[N+]56CC[N+](CC(=O)Nc7ccc(C#N)cc7)(CC5)CC6)cc3C4=O)[C@H](C)[C@H]12.[Cl-].[Cl-]`, for which, in the assay with Staphylococcus sp., the MIC50 turned out to be 1 µg/mL and the MIC90 was found to be 4 µg/mL. The compound further gave an IC50 on MecA of 1.41 µM. In the assay with Staphylococcus aureus, the MIC50 is 1 µg/mL and the MIC90 is 2 µg/mL.

Turning to `COc1cccc(NC(=O)C[N+]23CC[N+](Cc4ccc5c(c4)C(=O)c4ccc(C6=C(C(=O)O)N7C(=O)[C@H]([C@@H](C)O)[C@H]7[C@H]6C)cc4-5)(CC2)CC3)c1.[Cl-].[Cl-]`, in the assay with Staphylococcus sp., the MIC50 was 1 µg/mL and the MIC90 is 4 µg/mL. On MecA, this compound gave an IC50 of 2.43 µM. In the assay with Staphylococcus aureus, this compound registered an MIC50 of 1 µg/mL and an MIC90 of 1 µg/mL.

Regarding `C[C@@H](O)[C@H]1C(=O)N2C(C(=O)O)=C(c3ccc4c(c3)-c3ccc(C[N+]56CC[N+](CCCC(N)=O)(CC5)CC6)cc3C4=O)[C@H](C)[C@H]12.[Cl-].[Cl-]`, in the assay on Staphylococcus sp., the MIC50 is 4 µg/mL and the MIC90 worked out at 8 µg/mL. Besides, at MecA, the IC50 is 2.98 µM. In the assay on Staphylococcus aureus, the MIC50 stood at 4 µg/mL and the MIC90 was found to be 4 µg/mL.

Turning to `C[C@@H](O)[C@H]1C(=O)N2C(C(=O)O)=C(c3ccc4c(c3)-c3ccc(C[N+]56CC[N+](CC(=O)Nc7ccc(O)cc7)(CC5)CC6)cc3C4=O)[C@H](C)[C@H]12.[Cl-].[Cl-]`, the MIC50 against Staphylococcus sp. was found to be 1 µg/mL; with Staphylococcus aureus, 0.5 µg/mL. Also, the MIC90 amounted to 4 µg/mL in the assay with Staphylococcus sp. and 1 µg/mL with Staphylococcus aureus. Also, the concentration for half-maximal inhibition (IC50) on MecA was 0.652 µM.

Regarding `C[C@@H](O)[C@H]1C(=O)N2C(C(=O)O)=C(c3ccc4c(c3)-c3ccc(C[N+]56CC[N+](C)(CC5)CC6)cc3C4=O)[C@H](C)[C@H]12.[Cl-].[Cl-]`, the MIC50 with Staphylococcus sp. turned out to be 4 µg/mL; against Staphylococcus aureus, 2 µg/mL. Moreover, the MIC90 against Staphylococcus sp. was 8 µg/mL; against Staphylococcus aureus, 4 µg/mL. Further, the IC50 on MecA is 1.23 µM.

`C[C@@H](O)[C@H]1C(=O)N2C(C(=O)O)=C(c3ccc4c(c3)-c3ccc(C[N+]56CC[N+](CCCO)(CC5)CC6)cc3C4=O)[C@H](C)[C@H]12.[Cl-].[Cl-]`: the MIC50 in the assay on Staphylococcus sp. was 4 µg/mL; in the assay with Staphylococcus aureus, 2 µg/mL. Also, the MIC90 against Staphylococcus sp. is 8 µg/mL; in the assay with Staphylococcus aureus, 4 µg/mL. Also, the IC50 on MecA was 0.729 µM.

For the compound `C[C@@H](O)[C@H]1C(=O)N2C(C(=O)O)=C(c3ccc4c(c3)-c3ccc(C[N+]56CC[N+](CC(=O)Nc7ccccn7)(CC5)CC6)cc3C4=O)[C@H](C)[C@H]12.[Cl-].[Cl-]`, in the assay with Staphylococcus sp., the MIC50 worked out at 2 µg/mL and the MIC90 is 8 µg/mL. For the same compound, the concentration for half-maximal inhibition (IC50) at MecA was 0.43 µM. In the assay with Staphylococcus aureus, this compound registered an MIC50 of 2 µg/mL and an MIC90 of 4 µg/mL.

With `C[C@@H](O)[C@H]1C(=O)N2C(C(=O)O)=C(c3ccc4c(c3)-c3ccc(C[N+]56CC[N+](CC#N)(CC5)CC6)cc3C4=O)C[C@H]12.[Cl-].[Cl-]`, the MIC50 with Staphylococcus sp. and against Staphylococcus aureus was 2 µg/mL each time. The MIC90 in the assay with Staphylococcus sp. and in the assay on Staphylococcus aureus was 4 µg/mL each time. This compound also gave a half-maximal inhibitory concentration (IC50) at MecA of 0.474 µM.

In the assay on Staphylococcus sp., `CNC(=O)C[N+]12CC[N+](Cc3ccc4c(c3)C(=O)c3ccc(C5=C(C(=O)O)N6C(=O)[C@H]([C@@H](C)O)[C@H]6[C@H]5C)cc3-4)(CC1)CC2.[Cl-].[Cl-]` had an MIC50 of 4 µg/mL and an MIC90 of 8 µg/mL. The compound also gave an IC50 at MecA of 0.502 µM. In the assay on Staphylococcus aureus, this compound gave an MIC50 of 4 µg/mL and an MIC90 of 8 µg/mL.

For `C[C@@H](O)[C@H]1C(=O)N2C(C(=O)O)=C(c3ccc4c(c3)-c3ccc(C[N+]56CC[N+](CC(=O)Nc7ccncc7)(CC5)CC6)cc3C4=O)[C@H](C)[C@H]12.[Cl-].[Cl-]`, in the assay on Staphylococcus sp., the MIC50 is 2 µg/mL and the MIC90 was 4 µg/mL. The compound also gave an IC50 on MecA of 1.19 µM. In addition, in the assay with Staphylococcus aureus, the MIC50 is 1 µg/mL and the MIC90 stood at 2 µg/mL.

For `CCCNC(=O)C[N+]12CC[N+](Cc3ccc4c(c3)C(=O)c3ccc(C5=C(C(=O)O)N6C(=O)[C@H]([C@@H](C)O)[C@H]6[C@H]5C)cc3-4)(CC1)CC2.[Cl-].[Cl-]`, the MIC50 worked out at 4 µg/mL with Staphylococcus sp. and 2 µg/mL with Staphylococcus aureus. The MIC90 against Staphylococcus sp. was found to be 8 µg/mL; in the assay with Staphylococcus aureus it was 4 µg/mL. The same compound had an IC50 on MecA of 1.23 µM.

Regarding `C[C@@H](O)[C@H]1C(=O)N2C(C(=O)O)=C(c3ccc4c(c3)-c3ccc(C[N+]56CC[N+](CCCO)(CC5)CC6)cc3C4=O)C[C@H]12.[Cl-].[Cl-]`, the MIC50 in the assay on Staphylococcus sp. is 4 µg/mL; with Staphylococcus aureus it was 2 µg/mL. In addition, the MIC90 in the assay on Staphylococcus sp. turned out to be 4 µg/mL; against Staphylococcus aureus, 8 µg/mL. Also, on MecA, the concentration for half-maximal inhibition (IC50) is 1.27 µM.

In the assay on Staphylococcus sp., `C[C@@H](O)[C@H]1C(=O)N2C(C(=O)O)=C(c3ccc4c(c3)-c3ccc(C[N+]56CC[N+](CC(=O)NC(C)(C)C)(CC5)CC6)cc3C4=O)[C@H](C)[C@H]12.[Cl-].[Cl-]` displayed an MIC50 of 4 µg/mL and an MIC90 of 8 µg/mL. On MecA, the IC50 was 3.43 µM. In the assay with Staphylococcus aureus, the MIC50 is 2 µg/mL and the MIC90 was 4 µg/mL.

For `CCC[N+]12CC[N+](Cc3ccc4c(c3)C(=O)c3ccc(C5=C(C(=O)O)N6C(=O)[C@H]([C@@H](C)O)[C@H]6C5)cc3-4)(CC1)CC2.[Cl-].[Cl-]`, the MIC50 with Staphylococcus sp. and in the assay on Staphylococcus aureus was 2 µg/mL in each case. In addition, the MIC90 against Staphylococcus sp. and against Staphylococcus aureus was 4 µg/mL throughout. The compound also gave an IC50 on MecA of 0.456 µM.

In the assay with Staphylococcus sp., `C[C@@H](O)[C@H]1C(=O)N2C(C(=O)O)=C(c3ccc4c(c3)-c3ccc(C[N+]56CC[N+](CC(=O)c7ccccc7)(CC5)CC6)cc3C4=O)[C@H](C)[C@H]12.[Cl-].[Cl-]` registered an MIC50 of 2 µg/mL and an MIC90 of 4 µg/mL. At MecA, this compound had an IC50 of 0.88 µM. In the assay with Staphylococcus aureus, this compound had an MIC50 of 1 µg/mL and an MIC90 of 2 µg/mL.

In the case of `C[C@@H](O)[C@H]1C(=O)N2C(C(=O)O)=C(c3ccc4c(c3)-c3ccc(C[N+]56CC[N+](CC(=O)NC7CCCC7)(CC5)CC6)cc3C4=O)[C@H](C)[C@H]12.[Cl-].[Cl-]`, in the assay with Staphylococcus sp., the MIC50 stood at 4 µg/mL and the MIC90 came to 8 µg/mL. The IC50 on MecA is 1.41 µM. In the assay with Staphylococcus aureus, this compound returned an MIC50 of 2 µg/mL and an MIC90 of 4 µg/mL.

`CC(=O)c1cccc(NC(=O)C[N+]23CC[N+](Cc4ccc5c(c4)C(=O)c4ccc(C6=C(C(=O)O)N7C(=O)[C@H]([C@@H](C)O)[C@H]7[C@H]6C)cc4-5)(CC2)CC3)c1.[Cl-].[Cl-]`: the MIC50 against Staphylococcus sp. and with Staphylococcus aureus was 1 µg/mL in each case. The MIC90 was 4 µg/mL with Staphylococcus sp. and 2 µg/mL in the assay with Staphylococcus aureus. This compound also gave an IC50 at MecA of 1.29 µM.

In the assay on Staphylococcus sp., `C[C@@H](O)[C@H]1C(=O)N2C(C(=O)O)=C(c3ccc4c(c3)-c3ccc(C[N+]56CC[N+](CC(=O)N(C)C)(CC5)CC6)cc3C4=O)[C@H](C)[C@H]12.[Cl-].[Cl-]` had an MIC50 of 4 µg/mL and an MIC90 of 16 µg/mL. This compound also showed an IC50 on MecA of 0.581 µM. In the assay on Staphylococcus aureus, this compound gave an MIC50 of 4 µg/mL and an MIC90 of 8 µg/mL.
